Experimental data published in patent US10781203B2, “Nontoxic compounds for the treatment and prevention of herpesvirus infections” (The Penn State Research Foundation, priority 2016, dated 2020).

Tested on: MCMV
Test: Viral titers of MCMV-infected fibroblasts
Type: cell-based, mouse
Conditions: treated at 2 hpi; 6 dpi (FIG. 7C)
Description: FIG. 7A is a graph showing viral titers at 15 dpi of fibroblasts infected with various strains of HCMV (MOI=0.05) and treated with DMSO or Retro94 at 2 hpi. Media was changed and fresh Retro94 was added at 6 dpi. Bright field images representing CPE of above infections shown at right. FIG. 7B show HCMV-infected ARPE-19 cells (TB40, MOI=3) at 21 dpi treated with DMSO or Retro94 ([…]). Infected cells detected by monitoring mCherry (red) expressed by TB40 virus. Scale bars: 1 mm. The table below images show number of foci detected, average area and standard error of the mean. P<0.00001. […]
For MCMV growth curve analysis, samples were titrated on NIH 3T3 cells and titers were calculated using the 50% tissue culture infective dose method. Both HCMV virus stocks and samples for growth curves were titrated by serial dilutions on MRC5 cells and quantified by the immunological detection of immediate-early proteins as previously described (Britt W J. Human cytomegalovirus: propagation, quantification, and storage. Curr Protoc Microbiol. 2010; Chapter 14: Unit 14E.3). The numbers of stained nuclei were acquired on a Nikon Eclipse Ti Inverted microscope and fluorescent nuclei were quantified using the NIS Elements Software. […] The number and size of foci were quantified using NIS Elements software.

Cc1nc(-c2ccc(C3N(C)c4ccccc4C(=O)N3c3ccccc3)s2)cs1 (stereo not shown) [Retro94, 1-Methyl-2-(5-(2-methylthiazol-4-yl)thiophen-2-yl)-3phenyl-2,3-dihydroquinazolin-4(1H)-one]
decrease of MCMV titer: ~3 logs
